The conditions of the data set: 101.33 kPa, Liquid.

Numbers after ± are expanded uncertainties.

The mass density is mass per unit of volume.

`CN(C)C=O` [dimethylformamide]: the mass density runs as follows: (298.15 K) 943.8 ± 0.4 kg/m3; (308.15 K) 934.2 ± 0.4 kg/m3.

Take `CC(=O)N(C)C` [N,N-dimethylethanamide]: the mass density turned out to be 937 ± 0.4 kg/m3 (298.15 K) and 926.9 ± 0.4 kg/m3 (308.15 K).

Source of the values: the NIST ThermoML archive (doi:10.1021/je700339f).
